“Also recorded” adds a separate entry of the source.
Key:
[1] = target: lysine gingipain (Kgp) (Porphyromonas gingivalis (strain ATCC 33277 / DSM 20709 / CIP 103683 / JCM 12257 / NCTC 11834 / 2561), UniProt B2RLK2); assay: Fluorogenic lysine gingipain inhibition assay; type: biochemical; conditions: 0.1 nM Kgp, 10 uM Z-His-Glu-Lys-MCA, 90 minutes, 37° C., pH 7.5
Description: The capacities of compounds of the present invention to inhibit the activity of lysine gingipain were measured in a fluorogenic assay similar to those described in Barret Biochemical Journal. 1980, 187(3), 909. The specific assay conditions were as follows. Buffer: pH=7.5, 100 mM Tris-HCl, 75 mM NaCl, 2.5 mM CaCl2, 10 mM cysteine, 1% DMSO after all additions. Protein: 0.1 nM Kgp, isolated from culture of Porphyromonas gingivalis, as described in Pike et al. J. Biol. Chem. 1994, 269(1), 406, and Potempa and Nguyen. Current Protocols in Protein Scienc. 2007, 21.20.1-21.20.27. Fluorogenic substrate: 10 uM Z-His-Glu-Lys-MCA. Time=90 minutes. Temperature=37° C. Each compound: 10 concentrations, starting at either 100 uM or 100 nM, with lower concentrations generated by serial 3-fold dilutions. By testing a range of concentrations for each compound, the concentration required to inhibit the activity of lysine gingipain by 50% (the “IC50”) was determined. Under the described assay conditions, signal-to-noise was excellent, and Z factor was greater than 0.6.
The inhibitory of activity of compounds described herein was tested against Kgp, RgpB, and trypsin.

[2] = system: differentiated SHSY-5Y cells; assay: Gingipain-induced death of differentiated SH-SY5Y cells; type: cell-based; conditions: 100 nM Kgp and/or RgpB for 24 hours
Description: SH-SY5Y neuroblastoma cells were cultured and differentiated in the presence of 5 uM retinoic acid based on established methods [Saberi S., et al. Cell Mol Neurobiol 2013. 33: 747-751]. Differentiation into neuronal cells was verified by observation of neurite outgrowth. The differentiated cells were exposed to 100 nM Kgp and/or RgpB for 24 hours, in the presence or absence of Kgp inhibitors. Results were recorded using a digital microscope camera (FIG. 1C, FIG. 2C). Gingipains are toxic to cells while COR compounds prevent the cytotoxicity.

[3] = system: SHSY5Y cells; assay: P. gingivalis-induced toxicity in SHSY5Y cells; type: cell-based; conditions: SHSY5Y cells in vitro, compared to the antibiotic moxifloxacin
[4] = system: abeta 42; assay: Brain abeta 42 ELISA in mice orally infected with P. gingivalis; type: in vivo; conditions: Balb/cJ mice, oral W83 P. gingivalis for 42 days; compound subcutaneously three times per day on days 21-42
From the text: Female Balb/cJ mice were obtained from Taconic and allowed to acclimate. 43-44 week old mice were challenged orally with 10^9 CFU W83 P. gingivalis or a P. gingivalis strain lacking expression of Kgp every other day for 42 days. Compound 2 or vehicle (2% DMSO) was given subcutaneously three times per day on days 21-42. On day 42 mice were sacrificed and the brain removed and frozen. A sample including hippocampal tissue was lysed in RIPA buffer with protease inhibitors and analyzed for Abeta42 expression with the Amyloid beta 42 ELISA Kit, Mouse (Life Technologies).

NCCCC[C@H](NC(=O)[C@@H]1CCCN(C(=O)CCc2ccccc2)C1)C(=O)c1nc2ccccc2s1 [Compound 4, (3R)—N-[(1S)-5-amino-1-(1,3-benzothiazole-2-carbonyl)pentyl]-1-(3-phenylpropanoyl)piperidine-3-carboxamide]
IC50 [1]: 1 to 10 nM | prevention of gingipain-induced cell death [2]: prevents gingipain-induced death | prevention of gingipain-induced cell death ([2]; listed as 2-(N—[N-(3-phenylpropanoyl)-(R)-nipecotinyl]-(R)-lysinyl)-benzothiazole): effective at preventing cell death

NCCCC[C@H](NC(=O)C1CCCC1)C(=O)COc1c(F)c(F)cc(F)c1F [Compound 43, N-[(1S)-5-amino-1-[2-(2,3,5,6-tetrafluorophenoxy)acetyl]pentyl]cyclopentanecarboxamide]
protection from P. gingivalis-induced toxicity [3]: protects SHSY5Y cells from P. gingivalis-induced toxicity

NCCCC[C@H](NC(=O)C1CCCCC1)C(=O)c1nc2ccccc2s1 [Compound 2, N-[(1S)-5-amino-1-(1,3-benzothiazole-2-carbonyl)pentyl]cyclohexanecarboxamide]
prevention of gingipain-induced cell death [2]: prevents gingipain-induced death; also recorded: more effective; also recorded: effective at preventing cell death | brain levels of abeta 42 (ELISA) [4]: resolved; also recorded: increase in abeta42 that was not apparently

NCCCC[C@H](NC(=O)[C@H]1CCCN(C(=O)CCc2ccccc2)C1)C(=O)c1nc2ccccc2s1 [Compound 3, (3S)—N-[(1S)-5-amino-1-(1,3-benzothiazole-2-carbonyl)pentyl]-1-(3-phenylpropanoyl)piperidine-3-carboxamide]
prevention of gingipain-induced cell death [2]: does not

NCCCC[C@H](NC(=O)c1ccccc1)C(=O)c1nc2ccccc2s1 [Compound 1, N-[(1S)-5-amino-1-(1,3-benzothiazole-2-carbonyl)pentyl]benzamide]
prevention of gingipain-induced cell death [2]: prevents gingipain-induced death; also recorded: effective at preventing cell death
